Source: patent US6355640B1, “Pyrazolopyridine adenosine antagonists” (Fujisawa Pharmaceutical Co., Ltd., priority 1993, dated 2002)
Marks after values point to notes of the source that are not given here.

Tested on: cisplatin induced renal failure
Test: Test 2. Effect on Cisplatin-induced Renal Failure
Format: in vivo
Conditions: Male JCL:SD rats, cisplatin 4.5 mg/kg i.p. 60 minutes after first dose; test compound 0.1 mg/kg i.v. twice a day for 8 days; measured on the 8th day; mean; P < 0.05 vs control group
Procedure: Male JCL:SD strain rats aged 9 weeks weighing 280-300 g received cisplatin (4.5 mg/kg) intraperitoneally. Normal rats were injected with an equal amount of saline instead of cisplatin. The effect of chronic intravenous administration of the test compound (0.1 mg/kg, twice a day) on cisplatin induced renal failure was investigated in rats. […] The plasma creatinine concentrations were measured in all rats on the 8th day.

Question: For `O=C(O)CC1=C(n2nc(-c3c(-c4ccccc4)nn4ccccc34)ccc2=O)CCCC1` [Example 58, 3-[2-(2-carboxymethyl-1-cyclohexenyl)-3-oxo-2,3-dihydropyridazin-6-yl]-2-phenylpyrazolo[1,5-a]pyridine], which serum creatinine is on record?
Answer: 1.10* mg/dl
